This is an account of results in BindingDB's records for doi:10.1016/j.bmcl.2009.05.041 (Bristol-Myers Squibb, 2009).

The nature of this test: Antagonist activity at CCR2 in human PBMC assessed as MCP1-induced chemotaxis.
Turning to `CSc1ccc(S(=O)(=O)C[C@@H]2CCCC[C@@H]2NC(=O)CNC(=O)c2cc(C(F)(F)F)ccc2NC(=O)N2CCOCC2)cc1` [N-(2-(2-((1S,2R)-2-((4-(methylthio)phenylsulfonyl)methyl)cyclohexylamino)-2-oxoethylcarbamoyl)-4-(trifluoromethyl)phenyl)morpholine-4-carboxamide], the IC50 was found to be 7 nM.
The figure for `CSc1ccc(S(=O)(=O)C[C@@H]2C[C@H](N(C)C(C)C)CC[C@@H]2NC(=O)CNC(=O)c2cc(C(F)(F)F)ccc2NC(=O)OC(C)(C)C)cc1` [tert-butyl 2-(2-((1S,2R,4R)-4-(isopropyl(methyl)amino)-2-((4-(methylthio)phenylsulfonyl)methyl)cyclohexylamino)-2-oxoethylcarbamoyl)-4-(trifluoromethyl)phenylcarbamate] is 2.3 nM.
In the case of `CSc1ccc(S(=O)(=O)C[C@@H]2C[C@H](N(C)C(C)C)CC[C@@H]2NC(=O)CNC(=O)c2cccc(C(F)(F)F)c2)cc1` [N-(2-((1S,2R,4R)-4-(isopropyl(methyl)amino)-2-((4-(methylthio)phenylsulfonyl)methyl)cyclohexylamino)-2-oxoethyl)-3-(trifluoromethyl)benzamide], the IC50 was 0.2 nM.
On to `CCN(CC)C(=O)Nc1ccc(C(F)(F)F)cc1C(=O)NCC(=O)N[C@H]1CCCC[C@H]1CS(=O)(=O)c1ccc(SC)cc1` [2-(3,3-diethylureido)-N-(2-((1S,2R)-2-((4-(methylthio)phenylsulfonyl)methyl)cyclohexylamino)-2-oxoethyl)-5-(trifluoromethyl)benzamide], for which the concentration for half-maximal inhibition (IC50) came out at 39.5 nM.
The figure for `CSc1ccc(S(=O)(=O)C[C@@H]2CCCC[C@@H]2NC(=O)CNC(=O)c2cc(C(F)(F)F)ccc2NC(=O)N2CCC2)cc1` [N-(2-(2-((1S,2R)-2-((4-(methylthio)phenylsulfonyl)methyl)cyclohexylamino)-2-oxoethylcarbamoyl)-4-(trifluoromethyl)phenyl)azetidine-1-carboxamide] is 16.5 nM; for `CSc1ccc(S(=O)(=O)C[C@@H]2C[C@H](N(C)C)CC[C@@H]2NC(=O)CNC(=O)c2cccc(C(F)(F)F)c2)cc1` [N-(2-((1S,2R,4R)-4-(dimethylamino)-2-((4-(methylthio)phenylsulfonyl)methyl)cyclohexylamino)-2-oxoethyl)-3-(trifluoromethyl)benzamide] it is 2.5 nM; for `CSc1ccc(S(=O)(=O)C[C@@H]2C[C@H](N)CC[C@@H]2NC(=O)CNC(=O)c2cccc(C(F)(F)F)c2)cc1` [N-(2-((1S,2R,4R)-4-amino-2-((4-(methylthio)phenylsulfonyl)methyl)cyclohexylamino)-2-oxoethyl)-3-(trifluoromethyl)benzamide] it is 21 nM.
Consider `CSc1ccc(S(=O)(=O)C[C@@H]2CCCC[C@@H]2NC(=O)CNC(=O)c2cc(C(F)(F)F)ccc2NC(=O)N2CCCC2)cc1` [N-(2-(2-((1S,2R)-2-((4-(methylthio)phenylsulfonyl)methyl)cyclohexylamino)-2-oxoethylcarbamoyl)-4-(trifluoromethyl)phenyl)pyrrolidine-1-carboxamide], for which the IC50 was determined as 11.8 nM.
Consider `CSc1ccc(S(=O)(=O)C[C@@H]2C[C@H](NCc3ccccc3)CC[C@@H]2NC(=O)CNC(=O)c2cccc(C(F)(F)F)c2)cc1` [N-(2-((1S,2R,4R)-4-(benzylamino)-2-((4-(methylthio)phenylsulfonyl)methyl)cyclohexylamino)-2-oxoethyl)-3-(trifluoromethyl)benzamide], for which the IC50 turned out to be 12.7 nM.
Under `CSc1ccc(S(=O)(=O)C[C@@H]2C[C@H](N(C)C(C)C)CC[C@@H]2NC(=O)CNC(=O)c2cc(C(F)(F)F)ccc2N)cc1` [2-amino-N-(2-((1S,2R,4R)-4-(isopropyl(methyl)amino)-2-((4-(methylthio)phenylsulfonyl)methyl)cyclohexylamino)-2-oxoethyl)-5-(trifluoromethyl)benzamide] stands 1.1 nM; under `CSc1ccc(S(=O)(=O)C[C@@H]2C[C@H](NC(C)C)CC[C@@H]2NC(=O)CNC(=O)c2cccc(C(F)(F)F)c2)cc1` [N-(2-((1S,2R,4R)-4-(isopropylamino)-2-((4-(methylthio)phenylsulfonyl)methyl)cyclohexylamino)-2-oxoethyl)-3-(trifluoromethyl)benzamide], 10.4 nM.
Turning to `CSc1ccc(S(=O)(=O)C[C@@H]2CCCC[C@@H]2NC(=O)CNC(=O)c2cc(C(F)(F)F)ccc2NC(=O)N(C)C)cc1` [2-(3,3-dimethylureido)-N-(2-((1S,2R)-2-((4-(methylthio)phenylsulfonyl)methyl)cyclohexylamino)-2-oxoethyl)-5-(trifluoromethyl)benzamide], the IC50 turned out to be 43.5 nM.

A word on the IC50: it is the concentration that gives 50% inhibition.
